{
  "source": "patent US10865397B2",
  "about": "“Recombinant polynucleotide sequence for producing astaxanthin and uses thereof” (ACADEMIA SINICA, priority 2014, dated 2020)",
  "key": {"[1]": {"conditions": "3′S, 3′S compared with the 3′R3′R, 3′R stereoisomer; cited from earlier work"}, "Cz30 strain [2]": {"test_system": "Cz30 strain", "assay": "Stress tolerance test: pretreated cells, series dilution on YPG plate", "from_the_text": "(§1) For the biorefinery application, plant biomass is one of the most abundant renewable resources on earth and is considered an essential building block for developing a sustainable society. Renewable biological resources from plant can be converted into bioproducts, such as biofuels, biochemicals, biolubricants, and biodegradable materials. To utilize the sugars contained in plant biomass, many available treatment techniques, including acid hydrolysis, steam explosion, ammonia fiber expansion, organosolv, sulfite pretreatment, alkaline wet oxidation, ozone pretreatment, and enzyme treatment, are employed for lignocellulose destruction. Toxins produced during acid and steam pretreatment of lignocellulose cover a large range of substances, such as furfural and hydroxymethylfurfural from hemicellulose and cellulose, alcohols and aldehydes from lignin, and heavy metals from bioreactor. Accordingly, the second stress factor examined was furfural treatment.\n(§2) WT and Cz30 strains were further tested for ethanol and butanol treatments."}, "WT strain [3]": {"test_system": "WT strain", "assay": "Stress tolerance test: pretreated cells, series dilution on YPG plate", "conditions": "colonies on plate (FIG. 27B)", "from_the_text": "as §1, §2"}, "Cz30 strain [4]": {"test_system": "Cz30 strain", "description": "(§3) After 24 hours, the cells were inoculated into the YPG plate with a series dilution and cultivated for another 48 hours."}, "WT strain [5]": {"test_system": "WT strain", "conditions": "2, 4, or 6% ethanol in YPG medium, 24 hours", "description": "as §3"}},
  "data": [
    {"smiles": "CC1=C(/C=C/C(C)=C/C=C/C(C)=C/C=C/C=C(C)/C=C/C=C(C)/C=C/C2=C(C)C(=O)[C@@H](O)CC2(C)C)C(C)(C)C[C@@H](O)C1=O", "note": "[3′R3′R, 3′S mesoform, 3′R3′R, 3′S astaxanthin]", "values": [
      {"measurement": "antioxidant activity of astaxanthin stereoisomers", "setting": "[1]", "result": "no antioxidant activity"}
    ]},
    {"smiles": "O=Cc1ccco1", "note": "[furfural]", "values": [
      {"measurement": "furfural treatment tolerated", "setting": "Cz30 strain [2]; Cz30 strain, colonies on plate (FIG. 27B)", "result": 100, "unit": "mM"},
      {"measurement": "furfural treatment tolerated", "setting": "WT strain [3]", "result": 80, "unit": "mM"}
    ]},
    {"smiles": "CC1=C(/C=C/C(C)=C/C=C/C(C)=C/C=C/C=C(C)/C=C/C=C(C)/C=C/C2=C(C)C(=O)[C@@H](O)CC2(C)C)C(C)(C)C[C@H](O)C1=O", "note": "(single isomer, unassigned; stereoisomer 3) [3′S, 3′S stereoisomer, 3′S, 3′S-astaxanthin]", "values": [
      {"measurement": "antioxidant activity of astaxanthin stereoisomers", "setting": "[1]", "result": "higher antioxidant activity"}
    ]},
    {"smiles": "CC(=O)O[C@@]12CO[C@@H]1C[C@H](O)[C@@]1(C)C(=O)[C@H](O)C3=C(C)[C@@H](O)C[C@@](O)([C@@H](OC(=O)c4ccccc4)[C@H]21)C3(C)C", "note": "[10-deacetyl baccatin III]", "values": [
      {"measurement": "colony growth on YPG plate after pretreatment", "setting": "Cz30 strain [2]; 3.2 mM 10-deacetyl baccatin III in 12% ethanol, 24 hours, then 48 hours on plate, Cz30 versus WT", "result": "Cz30 colonies grew better than WT"},
      {"measurement": "damage to cultured yeasts compared with ethanol alone", "setting": "Cz30 strain [4]; 0.8 mM with 4% ethanol or 1.2 mM with 6% ethanol versus 4% or 6% ethanol, WT and Cz30 (FIG. 29B)", "result": "higher degree of damage"},
      {"measurement": "growth in medium containing 10-deacetyl baccatin III", "setting": "Cz30 strain [4]; 0.4-1.2 mM in YPG medium, Cz30 versus WT", "result": "Cz30 grew better than WT"}
    ]},
    {"smiles": "CC(C)CO", "note": "[isobutanol]", "values": [
      {"measurement": "colony growth on YPG plate after treatment", "setting": "Cz30 strain [2]", "result": "Only some Cz30 colonies could grow"}
    ]},
    {"smiles": "CCO", "note": "[ethanol]", "values": [
      {"measurement": "colony growth on YPG plate after treatment", "setting": "Cz30 strain [2]", "result": "Only some Cz30 colonies could grow"},
      {"measurement": "cell growth in presence of ethanol", "setting": "Cz30 strain [4]; 2, 4, or 6% ethanol in YPG medium, 24 hours", "result": "weakly affected"},
      {"measurement": "cell growth in presence of ethanol", "setting": "WT strain [5]", "result": "significantly repressed"}
    ]}
  ]
}
